This note sets out measurements from ChEMBL document CHEMBL5137093, “Improving Drug Delivery While Tailoring Prodrug Activation to Modulate Cmax and Cmin by Optimization of (Carbonyl)oxyalkyl Linker-Based Prodrugs of Atazanavir” (J Med Chem, 2022).

Each structure is given as a SMILES string.

Data set [1] can be described thus: Ratio of Cmax/Cmin in Sprague-Dawley rat at 3 mg/kg,po measured after 24 hrs by UPLC-MS/MS analysis. The data set is classed as ADME, organism-based. Particulars: in vivo.
Data set [2] is described as follows: Tmax in Sprague-Dawley rat at 30 mg/kg,po measured upto 24 hrs by UPLC-MS/MS analysis. The data set is classed as ADME, organism-based. Particulars: in vivo.
A short description of data set [3]: Clearance in Sprague-Dawley rat at 1 mg/kg,iv measured upto 24 hrs by UPLC-MS/MS analysis. The data set is classed as ADME, organism-based. Conditions: in vivo.
The nature of data set [4]: Cmax in Sprague-Dawley rat at 3 mg/kg,po measured upto 24 hrs by UPLC-MS/MS analysis. The data set is classed as ADME, organism-based. On the set-up: dose 3 mg/kg, time < 24 hrs, route po. Conditions: in vivo.
The nature of data set [5]: AUClast in Sprague-Dawley rat at 3 mg/kg,po measured upto 24 hrs by UPLC-MS/MS analysis. The data set is classed as ADME, organism-based. On the set-up: time < 24 hrs, dose 3 mg/kg, route po. Particulars: in vivo.
The nature of data set [6]: AUClast in Sprague-Dawley rat at 1 mg/kg,iv measured upto 24 hrs by UPLC-MS/MS analysis. The data set is classed as ADME, organism-based. The arrangement: time < 24 hrs, dose 1 mg/kg, route iv. Particulars: in vivo.
A short description of data set [7]: Half life in Sprague-Dawley rat at 1 mg/kg,iv measured upto 24 hrs by UPLC-MS/MS analysis. Conditions: in vivo. The data set is classed as ADME, organism-based.
Data set [8] is described as follows: Tmax in Sprague-Dawley rat at 3 mg/kg,po measured upto 24 hrs by UPLC-MS/MS analysis. The data set is classed as ADME, organism-based. Particulars: in vivo.
The nature of data set [9]: Cmax in Sprague-Dawley rat at 30 mg/kg,po measured upto 24 hrs by UPLC-MS/MS analysis. The data set is classed as ADME, organism-based. The arrangement: time < 24 hrs, dose 30 mg/kg, route po. Particulars: in vivo.
The nature of data set [10]: Cmin in Sprague-Dawley rat at 1 mg/kg,iv measured after 24 hrs by UPLC-MS/MS analysis. Particulars: in vivo, read-out: Cmin. The data set is classed as ADME, organism-based.
The nature of data set [11]: AUClast in Sprague-Dawley rat at 30 mg/kg,po measured upto 24 hrs by UPLC-MS/MS analysis. The data set is classed as ADME, organism-based. On the set-up: time < 24 hrs, dose 30 mg/kg, route po. Conditions: in vivo.
Data set [12] is described as follows: Aqueous solubility of compound at pH 6.5 by UPLC analysis. Conditions: aqueous medium, read-out: solubility. The data set is classed as physicochemical.
In data set [13] the target is Voltage-gated inwardly rectifying potassium channel KCNH2 (Homo sapiens, UniProt Q12809). Briefly: Inhibition of human ERG by patch-clamp assay. The data set is classed as toxicity. Background: Patch clamp records ionic current or voltage across a cell membrane.
Data set [14] is described as follows: Cmax in Sprague-Dawley rat at 1 mg/kg,iv measured upto 24 hrs by UPLC-MS/MS analysis. The data set is classed as ADME, organism-based. On the set-up: dose 1 mg/kg, time < 24 hrs, route iv. Particulars: in vivo.
Data set [15] can be described thus: Aqueous solubility of compound at pH 4 by UPLC analysis. Conditions: aqueous medium, read-out: solubility. The data set is classed as physicochemical.
Data set [16] in a line: Volume of distribution at steady state in Sprague-Dawley rat at 1 mg/kg,iv measured upto 24 hrs by UPLC-MS/MS analysis. The data set is classed as ADME, organism-based. Particulars: in vivo, read-out: Vdss.
A short description of data set [17]: Ratio of Cmax/Cmin in Sprague-Dawley rat at 1 mg/kg,iv measured after 24 hrs by UPLC-MS/MS analysis. The data set is classed as ADME, organism-based. Particulars: in vivo.

Sequence of Voltage-gated inwardly rectifying potassium channel KCNH2 (Q12809 whole entry): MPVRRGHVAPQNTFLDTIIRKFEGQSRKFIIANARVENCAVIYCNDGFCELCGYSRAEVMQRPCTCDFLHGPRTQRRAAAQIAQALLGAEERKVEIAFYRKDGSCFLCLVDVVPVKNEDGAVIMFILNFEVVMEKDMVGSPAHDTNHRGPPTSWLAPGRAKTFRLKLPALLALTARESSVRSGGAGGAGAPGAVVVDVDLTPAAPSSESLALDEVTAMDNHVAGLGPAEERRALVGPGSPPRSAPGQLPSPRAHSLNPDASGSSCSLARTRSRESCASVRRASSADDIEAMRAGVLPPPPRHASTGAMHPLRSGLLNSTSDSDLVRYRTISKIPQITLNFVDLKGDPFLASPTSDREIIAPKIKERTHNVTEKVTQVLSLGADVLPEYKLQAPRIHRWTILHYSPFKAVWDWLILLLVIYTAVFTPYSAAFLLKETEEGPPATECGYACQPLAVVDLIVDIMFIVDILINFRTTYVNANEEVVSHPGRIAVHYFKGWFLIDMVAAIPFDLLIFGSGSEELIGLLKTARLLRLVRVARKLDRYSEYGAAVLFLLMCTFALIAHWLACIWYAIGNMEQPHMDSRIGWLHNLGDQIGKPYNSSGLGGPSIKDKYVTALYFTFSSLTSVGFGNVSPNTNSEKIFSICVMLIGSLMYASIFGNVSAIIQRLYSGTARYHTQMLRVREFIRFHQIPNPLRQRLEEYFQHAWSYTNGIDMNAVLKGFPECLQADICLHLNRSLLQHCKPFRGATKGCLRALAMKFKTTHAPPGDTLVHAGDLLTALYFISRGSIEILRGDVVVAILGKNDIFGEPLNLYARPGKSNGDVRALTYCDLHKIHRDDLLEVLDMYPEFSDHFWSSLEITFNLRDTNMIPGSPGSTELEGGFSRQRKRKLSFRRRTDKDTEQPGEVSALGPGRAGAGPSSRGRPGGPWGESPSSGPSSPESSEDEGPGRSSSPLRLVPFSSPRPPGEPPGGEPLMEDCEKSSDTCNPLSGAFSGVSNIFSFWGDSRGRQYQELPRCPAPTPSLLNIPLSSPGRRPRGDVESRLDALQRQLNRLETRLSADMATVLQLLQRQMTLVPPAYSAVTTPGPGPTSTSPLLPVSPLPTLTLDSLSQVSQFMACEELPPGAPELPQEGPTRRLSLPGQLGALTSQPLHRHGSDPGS

As a reminder, the Tmax is the time from dosing to the highest level. Broadly, the clearance is the rate of elimination divided by the concentration. A higher clearance goes with a high capacity for elimination. The term Cmax denotes the maximum level reached in the sampled fluid or tissue. In general, AUC(0-t) refers to exposure summed from dosing to a finite time, without extrapolation to infinity. A high value points to high exposure. In general, half-life refers to how long it takes for the measured level to halve. A higher half-life goes with slow decline. Usually solubility stands for how much of the substance goes into solution per volume. As usually defined, the IC50 is the concentration that gives 50% inhibition. Read a high IC50 as a need for much substance. `COC(=O)N[C@H](C(=O)N[C@@H](Cc1ccccc1)[C@@H](O)CN(Cc1ccc(-c2ccccn2)cc1)NC(=O)[C@@H](NC(=O)OC)C(C)(C)C)C(C)(C)C` [ATAZANAVIR]: the Ratio amounted to 1064 in [1] and 8978.6 in data set [17]. Besides, the figures for the Tmax in [2] and in data set [8] were 3 h and 0.5 h, respectively. Further, in data set [3], the clearance turned out to be 38.7 mL/min/kg. Also, the Cmax in [4] came to 266 nM; in data set [9], 5110 nM; in [14] it was 2510 nM. In addition, the AUC(0-t) at 24 h is 0.384 µM·h in [5], 0.636 µM·h in [6] and 20.9 µM·h in data set [11]. This compound also had a half-life in [7] of 7 h. Further, the concentration at 24 h in [10] worked out at 0.28 nM. The solubility in data set [12] and in [15] was under 1 µg/mL in each case. The same compound had an IC50 in data set [13] of at least 30 µM. The Vd in [16] worked out at 1.5 L/kg.
